Source: article PMC12418703, “Avenanthramides and avenacosides as biomarkers of oat intake: a pharmacokinetic study of solid and liquid oat consumption under single and repeated dose conditions” (Nutrition Journal, 2025)

Test system: Feacalibacterium prausnitzii
Experiment: Association of F. prausnitzii relative abundance at baseline with Cmax and AUC strata (logistic regression)
Parameters: species or system humans
Details: liquid, solid, or combined; single dose phase I
Procedure: DNA was extracted from approximately 35 mg of each of the 451 fecal samples using the NucleoSpin Soil kit (Macherey-Nagel, 740780.250 M), following the manufacturer’s instructions. DNA yield was quantified using the Qubit 1X dsDNA Broad Range assay kit (Thermo Fisher Scientific, Q33266). For metagenomic shotgun sequencing, libraries were prepared with the MGIEasy Fast FS DNA Library Prep Set (MGI Tech Co., Ltd., 940-000030-00, Werheim, Germany), using 400 ng of DNA per sample. The library preparation process included DNA shearing for 12.5 min, followed by end repair, A-tailing, and magnetic bead-based cleanup. Adapter ligation and cleanup were then performed, followed by PCR amplification and magnetic bead-based size selection of the final library product. Library quality was assessed using the Qubit 1X dsDNA HS Assay Kit (Thermo Fisher Scientific, Q33231) and the Agilent High Sensitivity D1000 Assay Kit (Agilent Technologies, 5067–5584 and 5067–5585, Santa Clara, CA, USA). Pooled libraries were circularized, barcoded, and used as templates for DNA nanoball preparation. The nanoballs were then analyzed on the DNBSEQ-T7 platform (MGI Tech Co., Ltd.) using the DNBSEQ-T7RS High-throughput Sequencing Set (FCL PE150), according to the manufacturer’s guidelines.
Raw metagenomic reads underwent quality control to remove low-quality sequences, adapters, and contaminants using Fastp (version 0.23.2, default parameters). High-quality reads were filtered to exclude human reads (GRCh38_noalt_as) using Bowtie2 [38] (version 2.5.3). The quality-filtered reads were then aligned to the taxonomy database using MetaPhlAn (version 4.0.6, default parameters) to generate relative abundance profiles. For inclusion in the analysis, a species was required to be present in at least three samples.
For the seven metabolites AVE A, AVE B, AVA 2c, AVA 2f, AVA 2fd, AVA 2p, AVA 2pd analysed at phase I after the single dose of oat products, Cmax and area under the curve (AUC) were stratified based on less than the median or more or equal to the […]. Thereafter, for each metabolite, it was investigated whether the relative abundance of F. prausnitzii at baseline could predict the strata since this bacterium has previously been reported to be responsible for production of their dihydro-metabolites. Logistic regression with a binomial distribution and a logistic link function was used to separately analyze the liquid and solid products. When analyzing liquid and solid products together, a generalized linear mixed model with a binomial distribution and a logistic link function was used, with identity included as a random factor.

| SMILES | association between F. prausnitzii abundance at baseline and Cmax and AUC |
| --- | --- |
| O=C(/C=C/c1ccc(O)c(O)c1)Nc1ccc(O)cc1C(=O)O [AVA 2c] | no significant associations |
| COc1cc(/C=C/C(=O)Nc2ccc(O)cc2C(=O)O)ccc1O [AVA 2f] | no significant associations |
| O=C(/C=C/c1ccc(O)cc1)Nc1ccc(O)cc1C(=O)O [AVA 2p] | no significant associations |
